For ten compounds, GI50 and TGI results are on record in PubChem BioAssay (NCI).

Some test systems named below: ACHN renal; OVCAR-4 ovarian; IGROV1 ovarian; SK-OV-3 ovarian; MCF7 breast; HS 578T breast; CCRF-CEM leukemia; A549 NSCLC; HOP-92 NSCLC; NCI/ADR-RES ovarian.
What all share (test): DTP human tumour cell line panel, 48 h

Several values for one entry are separate records, joined by “and”; a condition that tells them apart may be missing. Equal values may be shown once.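 Values below derive from 48-hour exposures of cells grown in 96-well plates, with endpoints linearly interpolated between the two concentrations bracketing the appropriate inhibition level. At the GI50, growth is halved. TGI is the concentration that stops growth completely.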

As for `COc1ccc(/C=C(/c2ccccc2)[N+](=O)[O-])cc1`, the GI50 (commonly the concentration that inhibits growth by half) in the assay with ACHN renal was 1.55 µM; in the assay on OVCAR-4 ovarian it was 1.69 µM; in the assay on IGROV1 ovarian, 1.27 µM; with SK-OV-3 ovarian, 2.59 µM; with MCF7 breast, 0.567 µM; with HS 578T breast, 2.4 µM. In addition, the 50% growth inhibitory concentration (GI50) was 0.415 µM in the assay on CCRF-CEM leukemia, 2.13 µM in the assay with A549 NSCLC, 1.08 µM in the assay with HOP-92 NSCLC and 1.75 µM with NCI/ADR-RES ovarian. The TGI (commonly the concentration giving total growth inhibition) came to 2.9 µM in the assay on ACHN renal; 3.15 µM with OVCAR-4 ovarian; 2.67 µM in the assay on IGROV1 ovarian; 6.91 µM in the assay on SK-OV-3 ovarian; 2.68 µM in the assay on MCF7 breast; 7.7 µM in the assay with HS 578T breast. In addition, the concentration for total growth inhibition (TGI) in the assay with CCRF-CEM leukemia worked out at 3.32 µM; with A549 NSCLC it was 5.12 µM; in the assay on HOP-92 NSCLC it was 2.48 µM; in the assay on NCI/ADR-RES ovarian, 4.66 µM.

Turning to `COc1ccc2c(c1)C(C)Cc1c(ncnc1-n1cnc3cc(C)ccc31)N2C` (stereo unspecified), the concentration for 50% growth inhibition (GI50) was 0.0688 µM in the assay on ACHN renal; 0.347 µM in the assay on OVCAR-4 ovarian; 0.254 µM in the assay with IGROV1 ovarian; 0.0591 µM with SK-OV-3 ovarian; 0.0379 µM in the assay with MCF7 breast; 0.0686 µM in the assay on HS 578T breast. The GI50 with CCRF-CEM leukemia is 0.0324 µM; with A549 NSCLC, 0.254 µM; in the assay with HOP-92 NSCLC it was 0.329 µM; with NCI/ADR-RES ovarian, 0.0575 µM. In addition, the TGI with ACHN renal came out at 15.3 µM; in the assay on OVCAR-4 ovarian, 33.7 µM; in the assay on IGROV1 ovarian it was 14.5 µM; with SK-OV-3 ovarian, 11.7 µM; with MCF7 breast it was 12.7 µM; in the assay on HS 578T breast, 31.7 µM. Also, the total growth inhibition concentration (TGI) in the assay with CCRF-CEM leukemia worked out at 14.5 µM; in the assay with A549 NSCLC, 12.6 µM; in the assay on HOP-92 NSCLC, 15.9 µM; in the assay on NCI/ADR-RES ovarian, 59.5 µM.

`O=C(O)C12CC3(C(=O)O)CC(C(=O)O)(CC(C(=O)O)(C1)C3=O)C2=O`: the TGI with ACHN renal, in the assay on OVCAR-4 ovarian, with IGROV1 ovarian, in the assay on SK-OV-3 ovarian, in the assay with MCF7 breast and in the assay on HS 578T breast was above 100 µM in each case. The total growth inhibition concentration (TGI) with CCRF-CEM leukemia, in the assay with A549 NSCLC, in the assay with HOP-92 NSCLC and with NCI/ADR-RES ovarian was above 100 µM throughout.

As to `C[C@]12CC[C@@H]3c4ccc(O)c([N+](=O)[O-])c4CC[C@H]3[C@@H]1CC[C@@H]2NS(=O)(=O)c1cccc(Br)c1`, the GI50 in the assay with ACHN renal was 2.59 µM; with OVCAR-4 ovarian it was 1.47 µM; with IGROV1 ovarian it was 3.22 µM; with SK-OV-3 ovarian, 2.94 µM; with MCF7 breast it was 1.8 µM; in the assay on HS 578T breast it was 2.23 µM. In addition, the GI50 with CCRF-CEM leukemia is 2.65 µM; with A549 NSCLC, 2.81 µM; in the assay with HOP-92 NSCLC it was 1.53 µM; with NCI/ADR-RES ovarian, 2.69 µM. The TGI in the assay on ACHN renal came out at 8.17 µM; in the assay on OVCAR-4 ovarian, 2.94 µM; with IGROV1 ovarian, 9.35 µM; in the assay on SK-OV-3 ovarian, 7.53 µM; in the assay on MCF7 breast it was 3.93 µM; in the assay with HS 578T breast, 6 µM. For the same compound, the TGI in the assay with CCRF-CEM leukemia is 10.4 µM; with A549 NSCLC, 8.89 µM; in the assay with HOP-92 NSCLC it was 5.03 µM; in the assay with NCI/ADR-RES ovarian, 8.55 µM.

With `CC1C(=O)OC2CC[N+]3([O-])CC=C(COC(=O)C(C)(O)C1(C)O)C23` (stereo unspecified), the TGI in the assay on ACHN renal, in the assay on OVCAR-4 ovarian, with IGROV1 ovarian, in the assay on SK-OV-3 ovarian, with MCF7 breast and with HS 578T breast was above 100 µM in each case. Moreover, the TGI in the assay on CCRF-CEM leukemia, with A549 NSCLC, in the assay on HOP-92 NSCLC and in the assay on NCI/ADR-RES ovarian was above 100 µM throughout.

On to `O=c1[nH]c(=O)n([C@H]2CCCO2)cc1F`, for which the GI50 with ACHN renal is 2600 µM; in the assay on IGROV1 ovarian, 2270 µM; in the assay with SK-OV-3 ovarian it was above 3620 µM; in the assay with MCF7 breast, 575 µM; in the assay on CCRF-CEM leukemia, 527 µM; in the assay on A549 NSCLC, 625 µM. Moreover, the GI50 with NCI/ADR-RES ovarian was 3030 µM. In addition, the TGI is above 5000 µM in the assay on ACHN renal; above 5000 µM in the assay on OVCAR-4 ovarian; above 5000 µM in the assay with IGROV1 ovarian; 984 µM and > 5000 µM in the assay on SK-OV-3 ovarian; above 5000 µM in the assay with MCF7 breast; above 4650 µM in the assay on HS 578T breast. In addition, the TGI in the assay with CCRF-CEM leukemia, in the assay with A549 NSCLC, in the assay on HOP-92 NSCLC and with NCI/ADR-RES ovarian was above 5000 µM throughout.

On to `COc1ccc2c(Oc3ccc(NC(=O)c4c(C)n(CC(C)(C)O)n(-c5ccccc5)c4=O)nc3)ccnc2c1`, for which the GI50 in the assay with ACHN renal is 5.02 µM; with OVCAR-4 ovarian it was 10.7 µM; in the assay with IGROV1 ovarian, 12.3 µM; in the assay with SK-OV-3 ovarian, 6.06 µM; in the assay on MCF7 breast it was 26.2 µM; in the assay with HS 578T breast, 21.1 µM. The GI50 in the assay with CCRF-CEM leukemia is 18.2 µM; in the assay with A549 NSCLC, 20.3 µM; in the assay with HOP-92 NSCLC, 1.79 µM; with NCI/ADR-RES ovarian it was 20.5 µM. Also, the TGI in the assay on ACHN renal is above 100 µM; in the assay with OVCAR-4 ovarian it was above 90 µM; in the assay with IGROV1 ovarian, above 100 µM; in the assay with SK-OV-3 ovarian, above 80.8 µM; in the assay with MCF7 breast, 97.7 µM; in the assay with HS 578T breast, above 100 µM. In addition, the TGI is above 100 µM with CCRF-CEM leukemia, above 100 µM in the assay on A549 NSCLC, 16.7 µM in the assay with HOP-92 NSCLC and above 100 µM in the assay on NCI/ADR-RES ovarian.

With `Cc1cc(C)n(-c2nnc3n2N=C(c2ccc(-c4ccccc4)cc2)CS3)n1`, the GI50 was 3.98 µM with ACHN renal; 4.12 µM in the assay on OVCAR-4 ovarian; 4.81 µM in the assay on IGROV1 ovarian; 3.79 µM in the assay with SK-OV-3 ovarian; 2.84 µM with MCF7 breast; 2.76 µM in the assay on HS 578T breast. Besides, the GI50 is 3.12 µM in the assay with CCRF-CEM leukemia, 3.83 µM in the assay with A549 NSCLC, 1.38 µM in the assay on HOP-92 NSCLC and 3.09 µM in the assay with NCI/ADR-RES ovarian. Also, the TGI in the assay on ACHN renal, in the assay on OVCAR-4 ovarian, in the assay with IGROV1 ovarian, in the assay with SK-OV-3 ovarian, in the assay with MCF7 breast and with HS 578T breast was above 100 µM each time. The TGI is above 100 µM in the assay with CCRF-CEM leukemia, above 100 µM in the assay on A549 NSCLC, 5.13 µM with HOP-92 NSCLC and above 100 µM with NCI/ADR-RES ovarian.

With `C/C(=N\NC(=S)N1CC2CCC(CC2)C1)c1ccccn1`, the GI50 in the assay on ACHN renal was 0.0347 µM; in the assay on OVCAR-4 ovarian, 0.0238 µM; in the assay on IGROV1 ovarian it was below 0.01 µM; with SK-OV-3 ovarian, 0.0465 µM; in the assay on MCF7 breast, below 0.0145 µM; in the assay with HS 578T breast it was 0.226 µM. Further, the GI50 in the assay with CCRF-CEM leukemia was 0.0335 µM; with A549 NSCLC it was 0.064 µM; in the assay with HOP-92 NSCLC, 0.0255 µM; with NCI/ADR-RES ovarian, below 0.0177 µM. Further, the TGI is 1.52 µM in the assay on ACHN renal; 1.1 µM with OVCAR-4 ovarian; 2.29 µM in the assay on IGROV1 ovarian; 1.01 µM in the assay with SK-OV-3 ovarian; 1.44 µM with MCF7 breast; 3.87 µM in the assay with HS 578T breast. Moreover, the TGI amounted to 1.66 µM in the assay with A549 NSCLC, 0.793 µM with HOP-92 NSCLC and 2.43 µM in the assay with NCI/ADR-RES ovarian.

Take `CC(C)C1=C2CCC3(C)C(CCC4C5C6OCC5(CCC6(C)C)CCC43C)C2(C)CC1` (stereo unspecified): the total growth inhibition concentration (TGI) in the assay with ACHN renal is 35.9 µM; with OVCAR-4 ovarian, 77.5 µM; in the assay with IGROV1 ovarian, 29.2 µM; in the assay with SK-OV-3 ovarian, above 100 µM; with MCF7 breast, 47.7 µM; in the assay with HS 578T breast, 51.3 µM. In addition, the TGI is 31.9 µM in the assay on CCRF-CEM leukemia, 43.8 µM in the assay on A549 NSCLC, 40.8 µM in the assay on HOP-92 NSCLC and 39.6 µM in the assay with NCI/ADR-RES ovarian.
